Measured values as given in PubChem BioAssay (NCI).
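Interpolation was linear, between the two tested concentrations surrounding the appropriate level; five concentrations were tested over 48 hours in 96-well plates. GI50 marks 50% less growth. TGI: total growth inhibition.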

Key:
Assay in all cases: NCI-60 cell line screen, 48 h
786-0 renal = system: 786-0 renal
A498 renal = system: A498 renal
A549 NSCLC = system: A549 NSCLC
ACHN renal = system: ACHN renal
BT-549 breast = system: BT-549 breast
CAKI-1 renal = system: CAKI-1 renal
CCRF-CEM leukemia = system: CCRF-CEM leukemia
COLO 205 colon = system: COLO 205 colon
DU-145 prostate = system: DU-145 prostate
EKVX NSCLC = system: EKVX NSCLC
HCC-2998 colon = system: HCC-2998 colon
HCT-116 colon = system: HCT-116 colon
HCT-15 colon = system: HCT-15 colon
HL-60(TB) leukemia = system: HL-60(TB) leukemia
HOP-62 NSCLC = system: HOP-62 NSCLC
HOP-92 NSCLC = system: HOP-92 NSCLC
HS 578T breast = system: HS 578T breast
HT29 colon = system: HT29 colon
IGROV1 ovarian = system: IGROV1 ovarian
K-562 leukemia = system: K-562 leukemia
KM12 colon = system: KM12 colon
LOX IMVI melanoma = system: LOX IMVI melanoma
M14 melanoma = system: M14 melanoma
MALME-3M melanoma = system: MALME-3M melanoma
MCF7 breast = system: MCF7 breast
MDA-MB-231 breast = system: MDA-MB-231 breast
MDA-MB-435 = system: MDA-MB-435
MDA-MB-468 breast = system: MDA-MB-468 breast
MOLT-4 leukemia = system: MOLT-4 leukemia
NCI-H226 lung = system: NCI-H226 lung
NCI-H23 lung = system: NCI-H23 lung
NCI-H460 lung = system: NCI-H460 lung
NCI-H522 lung = system: NCI-H522 lung
OVCAR-3 ovarian = system: OVCAR-3 ovarian
OVCAR-4 ovarian = system: OVCAR-4 ovarian
OVCAR-5 ovarian = system: OVCAR-5 ovarian
OVCAR-8 ovarian = system: OVCAR-8 ovarian
PC-3 prostate = system: PC-3 prostate
RPMI-8226 leukemia = system: RPMI-8226 leukemia
RXF 393 renal = system: RXF 393 renal
SF-268 CNS = system: SF-268 CNS
SF-295 CNS = system: SF-295 CNS
SF-539 CNS = system: SF-539 CNS
SK-MEL-2 melanoma = system: SK-MEL-2 melanoma
SK-MEL-28 melanoma = system: SK-MEL-28 melanoma
SK-MEL-5 melanoma = system: SK-MEL-5 melanoma
SK-OV-3 ovarian = system: SK-OV-3 ovarian
SN12C renal = system: SN12C renal
SNB-19 CNS = system: SNB-19 CNS
SNB-75 CNS = system: SNB-75 CNS
SR leukemia = system: SR leukemia
SW-620 colon = system: SW-620 colon
T-47D breast = system: T-47D breast
TK-10 renal = system: TK-10 renal
U251 CNS = system: U251 CNS
UACC-257 melanoma = system: UACC-257 melanoma
UACC-62 melanoma = system: UACC-62 melanoma
UO-31 renal = system: UO-31 renal

COc1cc(/C=N/NC(=O)c2ccc3nc(-c4ccc(Cl)cc4)[nH]c3c2)cc(OC)c1OC
GI50 (786-0 renal): 4.88 µM | TGI (786-0 renal): 18.7 µM | GI50 (A498 renal): 26.4 µM | TGI (A498 renal): 77.6 µM | GI50 (A549 NSCLC): 7.55 µM | TGI (A549 NSCLC): 38.4 µM | GI50 (ACHN renal): 7.93 µM | TGI (ACHN renal): > 100 µM | GI50 (BT-549 breast): 2.69 µM | TGI (BT-549 breast): 9.27 µM | GI50 (CAKI-1 renal): 11.2 µM | TGI (CAKI-1 renal): 30.8 µM | GI50 (CCRF-CEM leukemia): 6.27 µM | TGI (CCRF-CEM leukemia): > 100 µM | GI50 (COLO 205 colon): 2.84 µM | TGI (COLO 205 colon): 24.4 µM | GI50 (DU-145 prostate): 6.77 µM | TGI (DU-145 prostate): 20.9 µM | GI50 (EKVX NSCLC): 14.8 µM | TGI (EKVX NSCLC): 97.2 µM | GI50 (HCC-2998 colon): 11.1 µM | TGI (HCC-2998 colon): 29.3 µM | GI50 (HCT-116 colon): 3.26 µM | TGI (HCT-116 colon): 10.6 µM | GI50 (HCT-15 colon): 73 µM | TGI (HCT-15 colon): > 100 µM | GI50 (HL-60(TB) leukemia): 3.9 µM | TGI (HL-60(TB) leukemia): 60.4 µM | GI50 (HOP-62 NSCLC): 4.68 µM | TGI (HOP-62 NSCLC): 16.4 µM | GI50 (HOP-92 NSCLC): 5.95 µM | TGI (HOP-92 NSCLC): 23.2 µM | GI50 (HS 578T breast): 2.58 µM | TGI (HS 578T breast): 7 µM | GI50 (HT29 colon): 2.98 µM | TGI (HT29 colon): 15.5 µM | GI50 (IGROV1 ovarian): 11 µM | TGI (IGROV1 ovarian): 30.8 µM | GI50 (K-562 leukemia): 1.96 µM | TGI (K-562 leukemia): 6.33 µM | GI50 (KM12 colon): 4.5 µM | TGI (KM12 colon): 17.9 µM | GI50 (LOX IMVI melanoma): 4.67 µM | TGI (LOX IMVI melanoma): 16.1 µM | GI50 (M14 melanoma): 3.77 µM | TGI (M14 melanoma): 21.1 µM | GI50 (MALME-3M melanoma): 1.12 µM | TGI (MALME-3M melanoma): 3.36 µM | GI50 (MCF7 breast): 0.663 µM | TGI (MCF7 breast): 12.5 µM | GI50 (MDA-MB-231 breast): 3.39 µM | TGI (MDA-MB-231 breast): 11.1 µM | GI50 (MDA-MB-435): 4.13 µM | TGI (MDA-MB-435): 15.3 µM | GI50 (MDA-MB-468 breast): 3.27 µM | TGI (MDA-MB-468 breast): 10.1 µM | GI50 (MOLT-4 leukemia): 3.58 µM | TGI (MOLT-4 leukemia): 28.1 µM | GI50 (NCI-H226 lung): 1.31 µM | TGI (NCI-H226 lung): 16.1 µM | GI50 (NCI-H23 lung): 4.72 µM | TGI (NCI-H23 lung): 18.8 µM | GI50 (NCI-H460 lung): 3.19 µM | TGI (NCI-H460 lung): 10.2 µM | GI50 (NCI-H522 lung): 4.9 µM | TGI (NCI-H522 lung): 20.9 µM | GI50 (OVCAR-3 ovarian): 2.28 µM | TGI (OVCAR-3 ovarian): 4.88 µM | GI50 (OVCAR-4 ovarian): 2.35 µM | TGI (OVCAR-4 ovarian): 7.29 µM | GI50 (OVCAR-5 ovarian): 15.6 µM | TGI (OVCAR-5 ovarian): 41.2 µM | GI50 (OVCAR-8 ovarian): 3.87 µM | TGI (OVCAR-8 ovarian): 18.9 µM | GI50 (PC-3 prostate): 5.73 µM | TGI (PC-3 prostate): > 100 µM | GI50 (RPMI-8226 leukemia): 3.21 µM | TGI (RPMI-8226 leukemia): > 100 µM | GI50 (RXF 393 renal): 2.22 µM | TGI (RXF 393 renal): 9.02 µM | GI50 (SF-268 CNS): 4.4 µM | TGI (SF-268 CNS): 20.5 µM | GI50 (SF-295 CNS): 4.18 µM | TGI (SF-295 CNS): 15.9 µM | GI50 (SF-539 CNS): 2.02 µM | TGI (SF-539 CNS): 6.98 µM | GI50 (SK-MEL-2 melanoma): 11 µM | TGI (SK-MEL-2 melanoma): 25 µM | GI50 (SK-MEL-28 melanoma): 1.83 µM | TGI (SK-MEL-28 melanoma): 6.78 µM | GI50 (SK-MEL-5 melanoma): 2.83 µM | TGI (SK-MEL-5 melanoma): 12.2 µM | GI50 (SK-OV-3 ovarian): 15 µM | TGI (SK-OV-3 ovarian): 38.1 µM | GI50 (SN12C renal): 3.22 µM | TGI (SN12C renal): 11 µM | GI50 (SNB-19 CNS): 3.42 µM | TGI (SNB-19 CNS): 10.5 µM | GI50 (SNB-75 CNS): 1.28 µM | TGI (SNB-75 CNS): 6.68 µM | GI50 (SR leukemia): 3.76 µM | TGI (SR leukemia): 19.1 µM | GI50 (SW-620 colon): 4.4 µM | TGI (SW-620 colon): 17.4 µM | GI50 (T-47D breast): 3.48 µM | TGI (T-47D breast): 21 µM | GI50 (TK-10 renal): 28.8 µM | TGI (TK-10 renal): > 100 µM | GI50 (U251 CNS): 2.59 µM | TGI (U251 CNS): 5.9 µM | GI50 (UACC-257 melanoma): 4.67 µM | TGI (UACC-257 melanoma): 18.8 µM | GI50 (UACC-62 melanoma): 1.24 µM | TGI (UACC-62 melanoma): 12.2 µM | GI50 (UO-31 renal): > 100 µM | TGI (UO-31 renal): > 100 µM
